Measured values published in patent publication US9072729B2, “Method for treating fibrosis and cancer with imidazolium and imidazolinium compounds” (Agency for Science, Technology and Research, priority 2008, dated 2015).
pIC50: −log10 of the molar value.

Columns and labels:
[1] = test system: AP-1; assay: Western blot of AP-1 complex members in nuclear extracts; type: cell-based, human; conditions: 24 hr
Experimental: FIG. 28. DBZIM induced up-regulation of AP-1 expression in HepG2 cells. HepG2 cells were treated with DBZIM for 24 hr. Cytoplasmic and nuclear proteins were fractionated using a kit from Pierce. 15 μg of nuclear proteins were resolved in 4-12% gradient PAGE-SDS gel. The target proteins were recognized by their respective antibodies, and visualized by the ECL method. The membrane was stripped and re-probed for Tata binding protein TBP as loading control.
(§1) Protein extracts were prepared by lysing cell pellet in RIPA buffer (Pierce, Ill., USA) for total protein extract, or in NE-PER reagent from Pierce (Pierce, Ill., USA) for nuclear and cytoplasmic fractions, or in a Kit from BioVision (CA, USA) for mitochondria and cytosol fractions. Protein content was quantified using BCA Kit (Pierce, Ill., USA). […] The membrane was then probed with primary antibodies against Bcl-XL, Bak, Bcl-2α, Bax (Lab Vision Corp., CA, USA), survivin, xIAP, cIAP (R&D systems Inc., MN, USA), c-Jun, c-Fos, JunB, JunD, Fra-1, Fra-2 (Santa Cruz Biotechnology, CA, USA) respectively, and detected by horseradish peroxidase-conjugated secondary antibody (Santa Cruz Biotechnology, CA, USA). Protein bands were recorded on X-ray film by reacting with ECL chemiluminescence reagents (Amersham Biosciences, NJ, USA). […]

[2] = test system: H1299; assay: Proliferation assay (MTS), lung cancer cell line; type: cell-based; conditions: Homo sapiens, NCI-H1299, 72 h, determined at day 3
Experimental: Proliferation of Glioma cell lines: U87 MG and C6 under the treatment of DBZIM was examined using 3-(4,5-dimethylthiazol-2-yl)-5-(3-carboxymethoxyphenyl)-2-(4-sulfophenyl)-2H-tetrazolium (MTS) based proliferation assay kit (Promega, Wis., USA). MTS reagent was added to the control and treated cells (after 48 hr) directly and the absorbance signal was read at 490 nm using a Tecan Safire II plate reader.
(§2) The IC50 value (determined at day 3) was 50 μM for H1299 (lung cancer); 50 μM for MCF-7 (breast cancer), and 40 μM for AGS gastric cancer at day 3 (Table 3).

[3] = test system: HLE cells; assay: Annexin V staining and flow cytometry, HLE; type: cell-based, human; conditions: 24 hr, TRAIL 100 ng/ml
Experimental: FIG. 22. […] HLE or HepG2 cells were incubated with DBZIM of various concentrations for 6 hr, and assayed for caspase 3/7 activity and LDH releasing (expressed as % toxicity). DBZIM induced apoptosis as characterized by annexin V staining using flow cytometer in HLE (E) and HepG2 (F). Scatter plot and histogram gave the representative information on the cell population distribution while bar graphs quantified the percentage of apoptotic cells from the histogram. HLE and HepG2 cells were treated by DBZIM of various concentrations for 24 hr before harvesting for annexin V staining and flow cytometric analysis.
HLE and HepG2 cells were treated with various concentrations of DBZIM or TRAIL (100 ng/ml) for 24 hr, harvested and labeled with Annexin V-FITC (BioVision, CA, USA). The labeled cells were analysed by flow cytometry FACSCalibur ([…], NJ, USA) and CellQuest software. Cells showing green staining in the plasma membrane were considered as apoptotic cells.

[4] = test system: Bcl-2 and IAP protein expression in HepG2 cells; assay: Western blot of Bcl-2 and IAP family proteins; type: cell-based, human; conditions: HepG2, 0-2.0 mM, 24 hr
Experimental: FIG. 24. DBZIM affected Bcl-2 and IAP protein expression. HepG2 cells were treated with DBZIM (0, 0.5, 1.0, 1.5 and 2.0 mM) for 24 hr. Total protein was collected using RIPA buffer. 15 μg of total protein was resolved in 4-12% gradient PAGE-SDS gel. The target proteins were recognized by respective antibodies, and visualized by the ECL method. The membrane was stripped and probed for the α-tubulin as the loading control.
Protein extracts were prepared by lysing cell pellet in RIPA buffer (Pierce, Ill., USA) for total protein extract, or in NE-PER reagent from Pierce (Pierce, Ill., USA) for nuclear and cytoplasmic fractions, or in a Kit from BioVision (CA, USA) for mitochondria and cytosol fractions. Protein content was quantified using BCA Kit (Pierce, Ill., USA). Fifteen micrograms of protein were resolved in 4-12% gradient SDS/polyacrylamide gel electrophoresis (PAGE) gel, and transferred to nitrocellular membrane. The membrane was then probed with primary antibodies against Bcl-XL, Bak, Bcl-2α, Bax (Lab Vision Corp., CA, USA), survivin, xIAP, cIAP (R&D systems Inc., MN, USA), c-Jun, c-Fos, JunB, JunD, Fra-1, Fra-2 (Santa Cruz Biotechnology, CA, USA) respectively, and detected by horseradish peroxidase-conjugated secondary antibody (Santa Cruz Biotechnology, CA, USA). Protein bands were recorded on X-ray film by reacting with ECL chemiluminescence reagents (Amersham Biosciences, NJ, USA). Alpha-tubulin (Abeam, UK) was used as the loading control for total protein, Tata binding protein (TBP) (Abeam, UK) was used as the loading control for nuclear protein, and Cox4 (Abcam, UK) was used as loading control for mitochondria protein.

[5] = test system: cytochrome C in HLE cells; assay: Western blot of cytochrome c release from mitochondria to cytosol; type: cell-based, human; conditions: 1.5 mM, 24 hr
Experimental: FIG. 23. (A). […] HLE cells were grown in a T75 flask and treated with DBZIM for 24 hr. The cells were then lysed and cytoplasmic protein was collected for assaying caspase 8, 9 and 3 using kits from Biovision. The data was normalized against the vehicle control. (B). […] HLE cells were treated by DBZIM of 1.5 mM for 24 hr. Cytosolic and mitochondria protein fractions were collected using a kit from Biovision. 15 μg of each protein was resolved in 4-12% gradient PAGE-SDS gel. The target proteins were recognized by antibody of cytochrome C, and visualized by the ECL method. […]
as §1

[6] = test system: Huh7 cells; assay: HCC xenograft model (Huh7 cells in Balb/c nude mice); type: in vivo, mouse; conditions: 2 grams/liter in drinking water, 3 weeks
Experimental: (§3) Balb/c Nude mice, 5-6 weeks old, were inoculated with 1×10^7 Huh7 cells in 0.2 ml volume of Matrigel/DMEM mix. Since not every mouse developed a tumor after the inoculation of HCC cells, only those with visible tumors (about 8 weeks after inoculation) were used for subsequent experiment. The tumor-bearing mice were randomly divided to the control and the treatment group. (n=3), respectively. Mice in the treatment group had free access to drinking water containing DBZIM (2 grams/liter) only, while mice in the control group had free access to Water only. The compound treatment lasted for 3 weeks. The tumor size was measured weekly, and the tumor volume was calculated using the formula: 0.52×width^2×length.
as §3, with “group” for “group.”, “compound 9 (IBN-9) at 0.6 g/l or 1.5 g/l” for “DBZIM (2 grams/liter)”, “water” for “Water”

[7] = test system: IMR90; assay: Cytotoxicity on normal (non-cancerous) lung cells; type: cell-based
Experimental: as §2

[8] = culture medium for human esophageal cancer cells (Hou et al. 2005); cited from earlier work

| Molecule | AP-1 complex members (C-Jun, Jun B, Jun D, Fra-1; not Fra-2) [1] | pIC50 [2] | apoptosis (annexin V staining) [3] | Bak protein [4] | Bcl-2α and Bax proteins [4] | Bcl-XL protein [4] | survivin protein [4] | xIAP and cIAP proteins [4] | release of cytochrome C from the mitochondria to the cytosol [5] | decrease of body weight [6] | reduction of tumor volume [6] | cytotoxicity on normal lung cells [7] | half life in culture medium [8] |
| --- | --- | --- | --- | --- | --- | --- | --- | --- | --- | --- | --- | --- | --- |
| [Br-].c1ccc(Cn2cc[n+](Cc3ccccc3)c2)cc1 [DBZIM, 1,3-bisbenzylimidazolium bromide] | significantly induced | 4.30 | dose-dependently induced apoptosis | up-regulated | not affected | slightly down-regulated | significantly suppressed | not affected | minimal release | 17% | 40% | much less cytotoxicity |  |
| (−)-Epigallocatechin gallate [EGCG, reference compound] |  |  |  |  |  |  |  |  |  |  |  |  | 30 min |
